Experimental data from patent publication US20220144854A1, “MACROCYCLIC COMPOUNDS” (ZENO MANAGEMENT, INC., priority 2019, published 2022).

System: NCI-H929 (ATCC CRL-9068) cells
Assay: NCI-H929 cell proliferation assay (CellTiter-Glo)
Type: cell-based
Settings: 72 h of compound treatment
Experimental: Cell proliferation was measured using the CellTiter-Glo® Luminescent Cell Viability Assay. The assay involved the addition of a single reagent (CellTiter-Glo® Reagent) directly to cells cultured in serum-supplemented medium.
Each compound evaluated was prepared as a DMSO stock solution (10 mM). Compounds were tested in duplicate on each plate, with a 10-point serial dilution curve (1:3 dilution). Compound treatment ([…]) was added from the compound dilution plate to the cell plate. The highest compound concentration was 10 μM (final), with a 0.1% final DMSO concentration. Plates were then incubated at 37° C., 5% CO2. After 72 h of compound treatment, cell plates were equilibrated at rt for approximately 30 mins. An equi-volume amount of CellTiter-Glo® Reagent (40 μL) was added to each well. Plates were mixed for 2 mins on an orbital shaker to induce cell lysis and then incubated at rt for 10 mins to stabilize the luminescent signal. Luminescence was recorded using an Envision plate reader according to CellTiter-Glo protocol. IC50 of each compound was calculated using GraphPad Prism by nonlinear regression analysis.

With `COc1ccc(Cn2nc3c(c2C)-c2c(Cl)ccc4c(c(C(=O)O)n(C)c24)CCCOc2cc(cc4ccccc24)SCc2cc(nn2C(C)C)CSC3)cc1` (single isomer, unassigned) [Example 8A, (Z)-1^6-Chloro-6^1-isopropyl-2^1-(4-methoxybenzyl)-1^1,2^5-dimethyl-1^1H,2^1H,6^1H-10-oxa-4,8-dithia-1(7,3)-indola-2(4,3),6(3,5)-dipyrazola-9(3,1)-naphthalenacyclotridecaphane-1^2-carboxylic acid] the IC50 was > 1000 nM.
With `COc1ccc(Cn2nc3c(c2C)-c2c(Cl)ccc4c(c(C(=O)O)n(C)c24)CCCOc2cc(cc4ccccc24)SCc2cc(nn2C(C)C)CSC3)cc1` (single isomer, unassigned) [Example 8B, (Z)-1^6-Chloro-6^1-isopropyl-2^1-(4-methoxybenzyl)-1^1,2^5-dimethyl-1^1H,2^1H,6^1H-10-oxa-4,8-dithia-1(7,3)-indola-2(4,3),6(3,5)-dipyrazola-9(3,1)-naphthalenacyclotridecaphane-1^2-carboxylic acid] the IC50 was 100 to 1000 nM.
In the case of `Cc1nn(C)c2c1-c1c(F)ccc3c(c(C(=O)O)n(C)c13)CCCOc1cc(cc3ccccc13)SCc1cc(nn1C(C)C)CSC2` (single isomer, unassigned) [Example 16B, (Z)-1^6-Fluoro-6^1-isopropyl-1^1,2^1,2^3-trimethyl-1^1H,2^1H,6^1H-10-oxa-4,8-dithia-1(7,3)-indola-2(4,5),6(3,5)-dipyrazola-9(3,1)-naphthalenacyclotridecaphane-1^2-carboxylic acid], the IC50 is reported as > 1000 nM.
In the case of `Cc1nn(C)c2c1-c1c(F)ccc3c(c(C(=O)O)n(C)c13)CCCOc1cc(cc3ccccc13)SCc1cc(nn1CC(C)C)CSC2` (single isomer, unassigned) [Example 17B, (Z)-1^6-Fluoro-6^1-isobutyl-1^1,2^1,2^3-trimethyl-1^1H,2^1H,6^1H-10-oxa-4,8-dithia-1(7,3)-indola-2(4,5),6(3,5)-dipyrazola-9(3,1)-naphthalenacyclotridecaphane-1^2-carboxylic acid], the IC50 is reported as 100 to 1000 nM.
`Cc1nn(C)c2c1-c1c(Cl)ccc3c(c(C(=O)O)n(C)c13)CCCOc1cc(cc3ccccc13)SCc1cc(nn1C)CSC2` (single isomer, unassigned) [Example 19A, (Z)-1^6-Chloro-1^1,2^1,2^3,6^1-tetramethyl-1^1H,2^1H,6^1H-10-oxa-4,8-dithia-1(7,3)-indola-2(4,5),6(3,5)-dipyrazola-9(3,1)-naphthalenacyclotridecaphane-1^2-carboxylic acid] was tested, and the IC50 was > 1000 nM.
With `Cc1nn(C)c2c1-c1c(Cl)ccc3c(c(C(=O)O)n(C)c13)CCCOc1cc(cc3ccccc13)SCc1cc(nn1C)CSC2` (single isomer, unassigned) [Example 19B, (Z)-1^6-Chloro-1^1,2^1,2^3,6^1-tetramethyl-1^1H,2^1H,6^1H-10-oxa-4,8-dithia-1(7,3)-indola-2(4,5),6(3,5)-dipyrazola-9(3,1)-naphthalenacyclotridecaphane-1^2-carboxylic acid] the IC50 was < 100 nM.
`Cn1nc2cc1CCc1cc(c3ccccc3c1)OCCCc1c(C(=O)O)n(C)c3c(c(Cl)ccc13)-c1c(nn3c1CCCC3)CNC2` (single isomer, unassigned) [Example 27A, (Z)-1^6-Chloro-1^1,6^1-dimethyl-2^4,2^5,2^6,2^7-tetrahydro-1^1H,6^1H-10-oxa-4-aza-2(3,2)-pyrazolo[1,5-a]pyridina-1(7,3)-indola-6(3,5)-pyrazola-9(3,1)-naphthalenacyclotridecaphane-1^2-carboxylic acid] showed an IC50 of 100 to 1000 nM.
For `Cn1nc2cc1CCc1cc(c3ccccc3c1)OCCCc1c(C(=O)O)n(C)c3c(c(Cl)ccc13)-c1c(nn3c1CCCC3)CNC2` (single isomer, unassigned) [Example 27B, (Z)-1^6-Chloro-1^1,6^1-dimethyl-2^4,2^5,2^6,2^7-tetrahydro-1^1H,6^1H-10-oxa-4-aza-2(3,2)-pyrazolo[1,5-a]pyridina-1(7,3)-indola-6(3,5)-pyrazola-9(3,1)-naphthalenacyclotridecaphane-1^2-carboxylic acid], the IC50 was > 1000 nM.
In the case of `CO[C@H]1/C=C/C[C@H](C)[C@@H](C)S(=O)(=O)NC(=O)c2ccc3c(c2)N(C[C@@H]2CC[C@H]21)C[C@@]1(CCCc2cc(Cl)ccc21)CO3` [AMG176, reference compound], the IC50 (Homo sapiens, NCI-H929, 72 h) is reported as 100 to 1000 nM.
For `Cc1c2c(nn1C)CSCc1cc(n(C)n1)CSc1cc(c3ccccc3c1)OCCCc1c(C(=O)O)n(C)c3c-2c(Cl)ccc13` [AZD5991, reference compound], the IC50 (Homo sapiens, NCI-H929, 72 h) was < 100 nM.
`Cc1[nH]nc2c1-c1c(Cl)ccc3c(c(C(=O)O)n(C)c13)CCCOc1cc(cc3ccccc13)SCc1cc(nn1C(C)C)CSC2` [Example 9B, (Z)-1^6-Chloro-6^1-isopropyl-1^1,2^5-dimethyl-1^1H,2^1H,6^1H-10-oxa-4,8-dithia-1(7,3)-indola-2(4,3),6(3,5)-dipyrazola-9(3,1)-naphthalenacyclotridecaphane-1^2-carboxylic acid] was tested, and the IC50 (Homo sapiens, NCI-H929, 72 h) was > 1000 nM.
In the case of `Cc1c2c(nn1C)CSCc1cc([nH]n1)CSc1cc(c3ccccc3c1)OCCCc1c(C(=O)O)n(C)c3c-2c(Cl)ccc13` [Example 11A, (Z)-1^6-Chloro-1^1,2^1,2^5-trimethyl-1^1H,2^1H,6^1H-10-oxa-4,8-dithia-1(7,3)-indola-2(4,3),6(3,5)-dipyrazola-9(3,1)-naphthalenacyclotridecaphane-1^2-carboxylic acid], the IC50 is reported as > 1000 nM.
Compound `Cc1c2c(nn1C)CSCc1cc(n(C)n1)CSc1cc(c3cc(Cl)ccc3c1)OCCCc1c(C(=O)O)n(C)c3c-2c(Cl)ccc13` [Example 12A, (Z)-1^6,9^7-Dichloro-1^1,2^1,2^5,6^1-tetramethyl-1^1H,2^1H,6^1H-10-oxa-4,8-dithia-1(7,3)-indola-2(4,3),6(3,5)-dipyrazola-9(3,1)-naphthalenacyclotridecaphane-1^2-carboxylic acid] has an IC50 of 100 to 1000 nM.
For `Cc1c2c(nn1C)CSCc1cc(n(C)n1)CSc1cc(c3ccccc3c1)OCCCc1c(C(=O)O)n(C)c3c-2c(Cl)cc(Cl)c13` [Example 13A, (Z)-1^4,1^6-dichloro-1^1,2^1,2^5,6^1-tetramethyl-1^1H,2^1H,6^1H-10-oxa-4,8-dithia-1(7,3)-indola-2(4,3),6(3,5)-dipyrazola-9(3,1)-naphthalenacyclotridecaphane-1^2-carboxylic acid], the IC50 was > 1000 nM.
In the case of `Cc1c2c(nn1C)CSCc1cc(n(C)n1)CSc1cc(c3ccccc3c1)OCCCc1c(C(=O)O)n(C)c3c-2c(F)ccc13` [Example 14B, (Z)-1^6-Fluoro-1^1,2^1,2^5,6^1-tetramethyl-1^1H,2^1H,6^1H-10-oxa-4,8-dithia-1(7,3)-indola-2(4,3),6(3,5)-dipyrazola-9(3,1)-naphthalenacyclotridecaphane-1^2-carboxylic acid], the IC50 is reported as > 1000 nM.
`Cc1nn(C23CC(C2)C3)c2c1-c1c(Cl)ccc3c(c(C(=O)O)n(C)c13)CCCOc1cc(cc3ccccc13)SCc1cc(n[nH]1)CSC2` [Example 21A, (Z)-2^1-(Bicyclo[1.1.1]pentan-1-yl)-1^6-chloro-1^1,2^3-dimethyl-1^1H,2^1H,6^1H-10-oxa-4,8-dithia-1(7,3)-indola-2(4,5),6(3,5)-dipyrazola-9(3,1)-naphthalenacyclotridecaphane-1^2-carboxylic acid] was tested, and the IC50 (Homo sapiens, NCI-H929, 72 h) was > 1000 nM.
`Cn1nc2cc1CSc1cc(c3ccccc3c1)OCCCc1c(C(=O)O)n(C)c3c(c(Cl)ccc13)-c1c(nn3c1CNCC3)CSC2` [Example 23B, (Z)-1^6-Chloro-1^1,6^1-dimethyl-2^4,2^5,2^6,2^7-tetrahydro-1^1H,6^1H-10-oxa-4,8-dithia-2(3,2)-pyrazolo[1,5-a]pyrazina-1(7,3)-indola-6(3,5)-pyrazola-9(3,1)-naphthalenacyclotridecaphane-1^2-carboxylic acid] gave an IC50 (Homo sapiens, NCI-H929, 72 h) of 100 to 1000 nM.
In the case of `CC(=O)N1CCn2nc3c(c2C1)-c1c(Cl)ccc2c(c(C(=O)O)n(C)c12)CCCOc1cc(cc2ccccc12)SCc1cc(nn1C)CSC3` [Example 24A, (Z)-2^5-Acetyl-1^6-chloro-1^1,6^1-dimethyl-2^4,2^5,2^6,2^7-tetrahydro-1^1H,6^1H-10-oxa-4,8-dithia-2(3,2)-pyrazolo[1,5-a]pyrazina-1(7,3)-indola-6(3,5)-pyrazola-9(3,1)-naphthalenacyclotridecaphane-1^2-carboxylic acid], the IC50 (Homo sapiens, NCI-H929, 72 h) is reported as 100 to 1000 nM.
`CN1CCn2nc3c(c2C1)-c1c(Cl)ccc2c(c(C(=O)O)n(C)c12)CCCOc1cc(cc2ccccc12)SCc1cc(nn1C)CSC3` [Example 25A, (Z)-1^6-chloro-1^1,2^5,6^1-trimethyl-2^4,2^5,2^6,2^7-tetrahydro-1^1H,6^1H-10-oxa-4,8-dithia-2(3,2)-pyrazolo[1,5-a]pyrazina-1(7,3)-indola-6(3,5)-pyrazola-9(3,1)-naphthalenacyclotridecaphane-1^2-carboxylic acid] was tested, and the IC50 (Homo sapiens, NCI-H929, 72 h) was 100 to 1000 nM.
Compound `Cn1nc2cc1CSc1cc(c3ccccc3c1)OCCCc1c(C(=O)O)n(C)c3c(c(Cl)ccc13)-c1c(nn3c1CCC3)CNC2` [Example 26A] has an IC50 (Homo sapiens, NCI-H929, 72 h) of 100 to 1000 nM.
In the case of `Cn1nc2cc1CCc1cc(c3ccccc3c1)OCCCc1c(C(=O)O)n(C)c3c(c(Cl)ccc13)-c1c(nn3c1CCC3)CNC2` [Example 26B, (Z)-1^6-chloro-1^1,6^1-dimethyl-2^5,2^6-dihydro-1^1H,2^4H,6^1H-10-oxa-4-aza-1(7,3)-indola-2(3,2)-pyrrolo[1,2-b]pyrazola-6(3,5)-pyrazola-9(3,1)-naphthalenacyclotridecaphane-1^2-carboxylic acid], the IC50 is reported as > 1000 nM.
With “(Z)-1^6-Fluoro-6^1-isobutyl-1^1,2^1,2^3-trimethyl-1^1H,2^1H,6^1H-10-oxa-4,8-dithia-1(7,3)-indola-2(4,5),6(3,5)-dipyrazola-9(3,1)-naphthalenacyclotridecaphane-1^2-carboxylic acid [Example 18B]” the IC50 was 100 to 1000 nM.
